Test results published in PMC6261661 (ACS chemical neuroscience, 2018).
“Also recorded” adds a separate entry of the source. Square brackets hold non-standard residues; d marks the D form. Peptide text beside a SMILES is read from it. * marks the point of attachment. Bip = N[C@@H](Cc1ccc(-c2ccccc2)cc1)C(=O)O; dBip = N[C@H](Cc1ccc(-c2ccccc2)cc1)C(=O)O; dPhe(4-I) = N[C@H](Cc1ccc(I)cc1)C(=O)O; 2Nal = N[C@@H](Cc1ccc2ccccc2c1)C(=O)O; 3Pal = N[C@@H](Cc1cccnc1)C(=O)O; 4Pal = N[C@@H](Cc1ccncc1)C(=O)O; 2Thi = N[C@@H](Cc1cccs1)C(=O)O; Octanoyl = CCCCCCCC(=O)*

Assays:
Assay type in all cases: cell-based
mMC1R = mMC1R (Mus musculus, UniProt Q01727); experiment: CRE/β-galactosidase reporter gene bioassay, agonist activity at mMC1R; conditions: for mMC1R pharmacology in words: comparisons are to reference peptide 1; for EC50: mMC1R EC50, agonist, HEK-293 cells stably expressing receptor, ±SEM; for mMC1R Fold Diff: fold difference in EC50 vs peptide 1, negative prefix = more potent than 1
Sequence of mMC1R (Q01727 whole entry): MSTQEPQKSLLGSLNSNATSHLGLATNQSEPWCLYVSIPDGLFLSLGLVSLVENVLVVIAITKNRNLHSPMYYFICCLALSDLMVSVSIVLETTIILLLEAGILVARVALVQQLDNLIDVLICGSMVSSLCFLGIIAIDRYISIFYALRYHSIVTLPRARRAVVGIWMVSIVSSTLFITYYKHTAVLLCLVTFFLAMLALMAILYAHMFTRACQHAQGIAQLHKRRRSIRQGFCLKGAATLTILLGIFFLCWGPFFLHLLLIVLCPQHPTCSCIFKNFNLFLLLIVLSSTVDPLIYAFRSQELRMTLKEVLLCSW

mMC3R [1] = molecular target: T1, mMC3R (Mus musculus, UniProt P33033); experiment: cell-based
T1 sequence (P33033 whole entry): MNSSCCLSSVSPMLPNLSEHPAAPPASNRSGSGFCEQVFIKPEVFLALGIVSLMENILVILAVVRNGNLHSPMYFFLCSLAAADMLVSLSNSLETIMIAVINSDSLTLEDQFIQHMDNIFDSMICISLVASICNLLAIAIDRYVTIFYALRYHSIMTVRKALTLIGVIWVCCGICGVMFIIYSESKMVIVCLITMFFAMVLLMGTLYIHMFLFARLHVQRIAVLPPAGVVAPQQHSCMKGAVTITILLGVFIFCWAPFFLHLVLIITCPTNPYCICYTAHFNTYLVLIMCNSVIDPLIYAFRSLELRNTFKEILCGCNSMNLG

mMC4R [2] = molecular target: T2, mMC4R (Mus musculus, UniProt P56450); experiment: Antagonist Schild analysis against agonist MTII at mMC4R; conditions: for mMC4R pharmacology class printed in Fold Diff. column (Ant, SA): Ant = antagonist, SA = some stimulatory activity at 100 µM
T2 sequence (P56450 whole entry): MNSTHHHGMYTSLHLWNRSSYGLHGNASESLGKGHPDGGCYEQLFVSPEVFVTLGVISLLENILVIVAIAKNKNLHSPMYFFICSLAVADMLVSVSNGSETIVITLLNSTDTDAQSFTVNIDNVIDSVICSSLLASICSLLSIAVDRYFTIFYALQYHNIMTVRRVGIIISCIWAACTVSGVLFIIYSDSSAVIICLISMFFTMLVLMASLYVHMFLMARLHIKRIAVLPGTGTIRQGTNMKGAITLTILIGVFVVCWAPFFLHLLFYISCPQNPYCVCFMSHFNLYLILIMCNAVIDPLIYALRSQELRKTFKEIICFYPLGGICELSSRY

mMC4R [3] = molecular target: T2, mMC4R; experiment: CRE/β-galactosidase reporter gene bioassay, agonist activity at mMC4R; conditions: for mMC4R relative percentage of stimulation at 100 μM: ligand at 100 μM, compared to maximal response generated by α-MSH; for mMC4R Fold Diff.: fold difference in EC50 vs peptide 1, negative prefix = more potent than 1
mMC5R = mMC5R (Mus musculus, UniProt P41149); experiment: CRE/β-galactosidase reporter gene bioassay, agonist activity at mMC5R; conditions: for mMC5R pharmacology in words: comparisons are to reference peptide 1; for mMC5R Fold Diff.: fold difference in EC50 vs peptide 1, negative prefix = more potent than 1; for mMC5R fold less potent than peptide 1: less potent than 1
Sequence of mMC5R (P41149 whole entry): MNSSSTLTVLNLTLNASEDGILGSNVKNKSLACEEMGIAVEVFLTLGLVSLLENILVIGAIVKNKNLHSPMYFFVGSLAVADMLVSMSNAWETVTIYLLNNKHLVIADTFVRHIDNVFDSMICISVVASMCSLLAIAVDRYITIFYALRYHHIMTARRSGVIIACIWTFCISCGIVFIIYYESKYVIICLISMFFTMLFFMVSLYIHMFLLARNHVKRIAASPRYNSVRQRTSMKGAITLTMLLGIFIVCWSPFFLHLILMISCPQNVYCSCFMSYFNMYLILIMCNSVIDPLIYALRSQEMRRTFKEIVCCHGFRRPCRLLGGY

mMC3R [4] = molecular target: T1, mMC3R; experiment: Antagonist Schild analysis against agonist MTII at mMC3R; conditions: for mMC3R pharmacology class printed in Fold Diff column (Ant, SA): Ant = antagonist, SA = some stimulatory activity at 100 µM
[5] = ligand at 100 μM, compared to maximal response generated by α-MSH

Structure (SMILES)	mMC1R pharmacology in words (mMC1R)	mMC3R relative percentage of stimulation at 100 μM (mMC3R [1]; 100000.0)	mMC4R pharmacology class printed in Fold Diff. column (Ant, SA) (mMC4R [2])	mMC4R relative percentage of stimulation at 100 μM (mMC4R [3]) [%]	mMC5R pharmacology in words (mMC5R)	mMC5R Fold Diff. (mMC5R)	EC50 (mMC1R) [nM]	Kb (mMC4R [2]) [nM]	EC50 (mMC5R) [nM]	mMC1R Fold Diff (mMC1R)	mMC3R relative percentage of stimulation at 100 μM (mMC3R [1]; [5]) [%]	Kb (mMC3R [4]) [nM]	mMC3R pharmacology class printed in Fold Diff column (Ant, SA) (mMC3R [4])	Ki (mMC4R [2]) [nM]	mMC5R fold less potent than peptide 1 (mMC5R)	fold preference for the mMC4R versus mMC3R (mMC4R [2]; antagonist) [fold]	EC50 (mMC4R [3]) [nM]	mMC4R Fold Diff. (mMC4R [3])
CCCCCCCC(=O)N[C@@H](Cc1c[nH]cn1)C(=O)N[C@H](Cc1ccccc1)C(=O)N[C@@H](CCCNC(=N)N)C(=O)N[C@@H](Cc1ccc(-c2ccccc2)cc1)C(N)=O [Peptide 2, Octanoyl-His-DPhe-Arg-Bip-NH2] (Octanoyl-H[dF]R[Bip]-NH2)	equipotent	50%−65%	Ant	40	decreased potencies	12	–	–	–	–	–	–	–	–	–	–	–	–
CCCCCCCC(=O)N[C@@H](Cc1cnc[nH]1)C(=O)N[C@H](Cc1ccccc1)C(=O)N[C@@H](CCCNC(=N)N)C(=O)N[C@@H](Cc1ccc(-c2ccccc2)cc1)C(N)=O [Peptide 2, Octanoyl-His-DPhe-Arg-Bip-NH2] (Octanoyl-H[dF]R[Bip]-NH2)	–	–	–	–	–	–	45 ± 12	100	62 ± 4	–	–	–	–	–	–	–	–	–
CCCCCCCC(=O)N[C@@H](Cc1c[nH]cn1)C(=O)N[C@H](Cc1ccc(I)cc1)C(=O)N[C@@H](CCCNC(=N)N)C(=O)N[C@@H](Cc1c[nH]c2ccccc12)C(N)=O [Peptide 6, Octanoyl-His-(pI)DPhe-Arg-Trp-NH2]	–	50%−65%	Ant	30	equipotent	–	6.3 ± 2.4	2.51	5.8 ± 1.7	−22	50	5.01	Ant	~3	–	–	–	–
CCCCCCCC(=O)N[C@@H](Cc1c[nH]cn1)C(=O)N[C@H](Cc1ccccc1)C(=O)N[C@@H](CCCNC(=N)N)C(=O)N[C@H](Cc1ccc(-c2ccccc2)cc1)C(N)=O [Peptide 8, Octanoyl-His-DPhe-Arg-DBip-NH2] (Octanoyl-H[dF]R[dBip]-NH2)	equipotent	–	Ant	–	decreased potencies	6	180 ± 20	50.1	31 ± 3	–	–	316	Ant	–	–	–	–	–
CC(=O)N[C@@H](Cc1cccnc1)C(=O)N[C@H](Cc1ccc(I)cc1)C(=O)N[C@@H](CCCNC(=N)N)C(=O)N[C@@H](Cc1c[nH]c2ccccc12)C(N)=O [Peptide 12, Ac-3PAL-(pI)DPhe-Arg-Trp-NH2] (Ac-[3Pal][dPhe(4-I)]RW-NH2)	–	–	SA Ant	35	–	3340	4800 ± 1400	5.01	18000 ± 3000	34	–	100	Ant	–	3300 fold	–	–	–
CC(=O)N[C@@H](Cc1cccs1)C(=O)N[C@H](Cc1ccc(I)cc1)C(=O)N[C@@H](CCCNC(=N)N)C(=O)N[C@@H](Cc1c[nH]c2ccccc12)C(N)=O [Peptide 14, Ac-2Thi-(pI)DPhe-Arg-Trp-NH2] (Ac-[2Thi][dPhe(4-I)]RW-NH2)	equipotent	–	SA Ant	55	–	14	490 ± 150	3.98	71 ± 30	–	40	39.8	SA Ant	–	11- to 25 fold	–	–	–
CC(=O)N[C@@H](Cc1ccccc1)C(=O)N[C@H](Cc1ccc(I)cc1)C(=O)N[C@@H](CCCNC(=N)N)C(=O)N[C@@H](Cc1c[nH]c2ccccc12)C(N)=O [Peptide 15, Ac-Phe-(pI)DPhe-Arg-Trp-NH2] (Ac-F[dPhe(4-I)]RW-NH2)	–	–	SA Ant	30	–	25	820 ± 320	20	140 ± 30	6	20	126	SA Ant	–	11- to 25 fold	–	–	–
CC(=O)N[C@@H](Cc1ccncc1)C(=O)N[C@H](Cc1ccc(I)cc1)C(=O)N[C@@H](CCCNC(=N)N)C(=O)N[C@@H](Cc1c[nH]c2ccccc12)C(N)=O [Peptide 16, Ac-4PAL-(pI)DPhe-Arg-Trp-NH2] (Ac-[4Pal][dPhe(4-I)]RW-NH2)	–	–	Ant	–	–	114	2900 ± 1500	1.26	610 ± 250	20	–	79.4	Ant	–	–	66	–	–
CC(=O)N[C@@H](Cc1ccc(-c2ccccc2)cc1)C(=O)N[C@H](Cc1ccc(I)cc1)C(=O)N[C@@H](CCCNC(=N)N)C(=O)N[C@@H](Cc1c[nH]c2ccccc12)C(N)=O [Peptide 17, Ac-Bip-(pI)DPhe-Arg-Trp-NH2] (Ac-[Bip][dPhe(4-I)]RW-NH2)	–	–	Ant	–	–	83	5200 ± 1700	79.4	440 ± 70	37	–	631	Ant	–	–	–	–	–
CC(=O)N[C@@H](Cc1c[nH]c2ccccc12)C(=O)N[C@H](Cc1ccc(-c2ccccc2)cc1)C(=O)N[C@@H](CCCNC(=N)N)C(=O)N[C@@H](Cc1c[nH]c2ccccc12)C(N)=O [Peptide 18, Ac-Trp-DBip-Arg-Trp-NH2] (Ac-W[dBip]RW-NH2)	non-selective mMC1R and mMC5R micromolar agonist profile	–	SA Ant	45	non-selective mMC1R and mMC5R micromolar agonist profile	340	1800 ± 1000	100	1800 ± 1300	13	–	200	Ant	–	–	–	–	–
CC(=O)N[C@@H](Cc1ccncc1)C(=O)N[C@H](Cc1ccc(-c2ccccc2)cc1)C(=O)N[C@@H](CCCNC(=N)N)C(=O)N[C@@H](Cc1c[nH]c2ccccc12)C(N)=O [Peptide 22, Ac-4PAL-DBip-Arg-Trp-NH2] (Ac-[4Pal][dBip]RW-NH2)	–	45%	–	–	–	235	1900 ± 720	–	1300 ± 300	14	–	316	SA Ant	–	–	–	1300 ± 200	92
CC(=O)N[C@@H](Cc1c[nH]cn1)C(=O)N[C@H](Cc1ccc(I)cc1)C(=O)N[C@@H](CCCNC(=N)N)C(=O)N[C@@H](Cc1ccc(-c2ccccc2)cc1)C(N)=O [Peptide 29, Ac-His-(pI)DPhe-Arg-Bip-NH2] (Ac-H[dPhe(4-I)]R[Bip]-NH2)	–	–	SA Ant	30	equipotent agonists; also recorded: very potent nanomolar agonist activity	–	47 ± 9	39.8	12.4 ± 2	–	35	200	SA Ant	–	–	–	–	–
CC(=O)N[C@@H](Cc1c[nH]cn1)C(=O)N[C@H](Cc1ccc(-c2ccccc2)cc1)C(=O)N[C@@H](CCCNC(=N)N)C(=O)N[C@@H](Cc1ccc(-c2ccccc2)cc1)C(N)=O [Peptide 33, Ac-His-DBip-Arg-Bip-NH2] (Ac-H[dBip]R[Bip]-NH2)	more potent	–	Ant	30	less potent	6	15.8 ± 6.1	158	31.2 ± 4.7	−9	–	501	Ant	–	–	–	–	–
CC(=O)N[C@@H](Cc1c[nH]cn1)C(=O)N[C@H](Cc1ccc(-c2ccccc2)cc1)C(=O)N[C@@H](CCCNC(=N)N)C(=O)N[C@H](Cc1ccc(-c2ccccc2)cc1)C(N)=O [Peptide 35, Ac-His-DBip-Arg-DBip-NH2] (Ac-H[dBip]R[dBip]-NH2)	within 3-fold experimental error	–	SA Ant	23	less potent	8	90 ± 20	158	42 ± 7	–	–	200	Ant	–	–	–	–	–
CC(=O)N[C@@H](Cc1c[nH]cn1)C(=O)N[C@H](Cc1ccc(-c2ccccc2)cc1)C(=O)N[C@@H](CCCNC(=N)N)C(=O)N[C@@H](Cc1ccc2ccccc2c1)C(N)=O [Peptide 36, Ac-His-DBip-Arg-Nal(2’)-NH2] (Ac-H[dBip]R[2Nal]-NH2)	more potent	50%	–	–	less potent	4	17 ± 5.4	–	20.7 ± 4.1	−8	–	25.1	SA Ant	–	–	–	52 ± 18	4
